# Laboratory results taken from ChEMBL document CHEMBL3272105, “Quantitative structure-activity studies on monoamine oxidase inhibitors” (J Med Chem, 1976).
# Key:
# Rattus norvegicus = experiment: Ratio of compound to iproniazid for in vivo inhibition of monoamine oxidase in rat brain assessed as increase in serotonin production after 16 hrs; format: functional
# [1] = Octanol-water partition coefficient, log P of the compound; format: physicochemical
SMILES,logP ([1]; read-out: logP),logP [1],Ratio (Rattus norvegicus)
CC(C)NNC(=O)c1ccco1,–,–,156
CC(C)NNC(=O)c1cnccn1,–,–,152
CC(C)NNC(=O)c1ccc(Cl)cc1,2.84,–,134
CC(C)NNC(=O)c1cccc([N+](=O)[O-])c1,1.85,–,125
CC(C)NNC(=O)c1cccc(Cl)c1,2.84,–,123
CC(C)NNC(=O)c1cc[nH]n1,–,–,84
CC(C)NNC(=O)c1ccccc1N,0.9,–,60
CC(C)NNC(=O)c1c[nH]nn1,–,–,38
CC(C)NNC(=O)c1ccc(N)cc1,0.9,–,15
CC(C)NNC(=O)c1ccc(O)cc1,1.46,–,11
CC(C)NNC(=O)c1cccnn1,–,–,0
CC(C)NNC(=O)c1ccccc1O,1.46,–,0

# Now from value to compound, other results behind:
logP ([1]; read-out: logP),logP [1],SMILES,Ratio (Rattus norvegicus)
1.61,–,CC(C)NNC(=O)c1cccs1,198
1.61,–,CC(C)NNC(=O)c1ccsc1,192
0.32,–,CC(C)NNC(=O)c1ccccn1,191
0.32,–,CC(C)NNC(=O)c1cccnc1,111
3.66,–,CC(C)NNC(=O)c1ccc(C(C)C)cc1,97
3.25,–,Cc1ccc(C(=O)NNC(C)C)cc1C,76
2.11,–,COc1ccc(C(=O)NNC(C)C)cc1,63
0.44,–,Cc1ncsc1C(=O)NNC(C)C,38
-0.4,–,Cc1ncc(C(=O)NNC(C)C)c(C)n1,0
1.2,–,Cc1noc(C)c1C(=O)NNC(C)C,0
–,0.32,CC(C)NNC(=O)c1ccncc1 [IPRONIAZID],100
